{"source": "patent US20180153995A1", "about": "“USE OF ANTIMICROBIAL POLYMERS FOR RE-SENSITIZATION OF MICROORGANISMS UPON EMERGENCE OF RESISTANCE TO ANTI-MICROBIAL AGENTS” (Technion Research & Development Foundation Limited, priority 2008, published 2018)", "key": {"[1]": {"test_system": "MRSA 15852", "assay_type": "cell-based, Staphylococcus aureus", "conditions": "S. aureus 15852", "description": "The fractionary inhibitory (FIC) concentration index for combinations of two antimicrobial agents was calculated as follows: FIC index=FICA+FICB=A/MICA+B/MICB where A and B are the MIC values of agent A and agent B in the combination, MICA and MICB are the MICs of agent A and agent B alone, and FICA and FICB are the FICs of agent A and agent B.\nThe FIC indexes were interpreted as follows: less than 0.5 indicates a clear re-sensitizing effect; from 0.5 to 4 indicates a marginal or null re-sensitizing effect; and over 4 indicates antagonism."}, "[2]": {"test_system": "S. aureus 17314", "test": "Antibiotic MIC by microdilution with or without sub-MIC polymer", "assay_type": "cell-based, Staphylococcus aureus"}, "[3]": {"test_system": "E. coli 16327", "test": "microbe, parasite or virus in culture", "conditions": "for Antibiotic MIC: E. coli 16327", "description": "(§1) MICs were determined by microdilution susceptibility testing in 96-well plates (by Nunc) using inocula of 10^5 bacteria per ml. Cell populations were evaluated by optical density measurements at 620 nm and were calibrated against a set of standards. Hundred (100) μl of a bacterial suspension were added to 100 μl of culture medium (control) or to 100 μl of culture medium containing various polymer concentrations in 2-fold serial dilutions. Inhibition of proliferation was determined by optical density measurements at 620 nm after an incubation period of 24 hours at 37° C.\n(§2) 100 μl of a bacterial suspension were added to 100 μl of culture medium (control) or to 100 μl of culture medium containing various antibiotic and C14(9-ene)KKNC12KNH2 (SEQ ID NO: 5) concentrations in 2-fold serial dilutions. Inhibition of proliferation was determined by optical density measurements at 620 nm after an incubation period of 24 hours at 37° C."}, "[4]": {"test_system": "P. aeruginosa 8732", "test": "Antibiotic MIC by microdilution with or without sub-MIC polymer", "assay_type": "cell-based, Pseudomonas aeruginosa", "conditions": "P. aeruginosa 8732; no polymer (None), Table 10", "description": "as §1\nInhibition of proliferation was determined by optical density measurements at 620 nm after an incubation period of 24 hours at 37° C."}, "[5]": {"test_system": "P. mirabilis 1285", "assay_type": "cell-based, Proteus mirabilis", "conditions": "no polymer (None), Table 12", "description": "as §1, §2"}, "[6]": {"test_system": "P. mirabilis 1285", "assay_type": "cell-based, Proteus mirabilis"}, "[7]": {"conditions": "+¼ MIC (1.6 μM) C12K(KNC12K)2NH2"}, "[8]": {"conditions": "+½ MIC (3.12 μM) C12K(KNC12K)2NH2"}, "[9]": {"conditions": "+⅓ MIC (2.1 μM) C12K(KNC12K)2NH2"}}, "note": "Like-named read-outs stand apart in the source and are kept apart here.", "data": [{"smiles": "O=C(O)c1cn(C2CC2)c2cc(N3CCNCC3)c(F)cc2c1=O", "note": "[Ciprofloxacin, ciprofloxacin]", "values": [{"measurement": "Antibiotic MIC", "setting": "[1]; +¼ MIC (1.6 μM) C12(5-ene)KKNC12KNH2", "value": 16, "unit": "µg/mL"}, {"measurement": "Antibiotic MIC", "setting": "[1]; +¼ MIC (1.6 μM) C12KKNC12KNH2", "value": 32, "unit": "µg/mL"}, {"measurement": "Antibiotic MIC", "setting": "[1]; +½ MIC (3.12 μM) C12(5-ene)KKNC12KNH2", "value": 16, "unit": "µg/mL"}, {"measurement": "Antibiotic MIC", "setting": "[1]; +½ MIC (3.12 μM) C12KKNC12KNH2", "value": 32, "unit": "µg/mL"}, {"measurement": "Antibiotic MIC", "setting": "[1]; +⅓ MIC (2.1 μM) C12(5-ene)KKNC12KNH2", "value": 16, "unit": "µg/mL"}, {"measurement": "Antibiotic MIC", "setting": "[1]; +⅓ MIC (2.1 μM) C12KKNC12KNH2", "value": 32, "unit": "µg/mL"}, {"measurement": "Antibiotic MIC", "setting": "[1]; no polymer (None), Table 8", "value": 16, "unit": "µg/mL"}, {"measurement": "Antibiotic MIC", "setting": "[1]; no polymer (None), Table 11", "value": 32, "unit": "µg/mL"}, {"measurement": "Antibiotic MIC", "setting": "[2]", "value": 128, "unit": "µg/mL"}, {"measurement": "Antibiotic MIC", "setting": "[2]; S. aureus 17314, +¼ MIC (1.6 μM) C12K(KNC12K)2NH2", "value": 128, "unit": "µg/mL"}, {"measurement": "Antibiotic MIC", "setting": "[2]; S. aureus 17314, +¼ MIC (1.6 μM) C14(9-ene)KKNC12KNH2", "value": 64, "unit": "µg/mL"}, {"measurement": "Antibiotic MIC", "setting": "[2]; S. aureus 17314, +¼ MIC (1.6 μM) C16(9-ene)KKNC12KNH2", "value": 32, "unit": "µg/mL"}, {"measurement": "Antibiotic MIC", "setting": "[2]; S. aureus 17314, +½ MIC (3.12 μM) C12K(KNC12K)2NH2", "value": 64, "unit": "µg/mL"}, {"measurement": "Antibiotic MIC", "setting": "[2]; S. aureus 17314, +½ MIC (3.12 μM) C12KKNC12KNH2", "value": 64, "unit": "µg/mL"}, {"measurement": "Antibiotic MIC", "setting": "[2]; S. aureus 17314, +½ MIC (3.12 μM) C14(9-ene)KKNC12KNH2", "value": 64, "unit": "µg/mL"}, {"measurement": "Antibiotic MIC", "setting": "[2]; S. aureus 17314, +½ MIC (3.12 μM) C16(9-ene)KKNC12KNH2", "value": 16, "unit": "µg/mL"}, {"measurement": "Antibiotic MIC", "setting": "[2]; S. aureus 17314, +⅓ MIC (2.1 μM) C12K(KNC12K)2NH2", "value": 64, "unit": "µg/mL"}, {"measurement": "Antibiotic MIC", "setting": "[2]; S. aureus 17314, +⅓ MIC (2.1 μM) C12KKNC12KNH2", "value": 64, "unit": "µg/mL"}, {"measurement": "Antibiotic MIC", "setting": "[2]; S. aureus 17314, +⅓ MIC (2.1 μM) C14(9-ene)KKNC12KNH2", "value": 64, "unit": "µg/mL"}, {"measurement": "Antibiotic MIC", "setting": "[2]; S. aureus 17314, +⅓ MIC (2.1 μM) C16(9-ene)KKNC12KNH2", "value": 32, "unit": "µg/mL"}, {"measurement": "Antibiotic MIC", "setting": "[2]; S. aureus 17314, no polymer (None), Table 9", "value": 64, "unit": "µg/mL"}, {"measurement": "Antibiotic MIC", "setting": "[2]; S. aureus 17314, no polymer (None), Table 10", "value": 64, "unit": "µg/mL"}, {"measurement": "Antibiotic MIC", "setting": "[2]; S. aureus 17314, no polymer (None), Table 11", "value": 128, "unit": "µg/mL"}, {"measurement": "Antibiotic MIC", "setting": "[2]; S. aureus 17314, no polymer (None), Table 12", "value": 128, "unit": "µg/mL"}, {"measurement": "Antibiotic MIC", "setting": "[3]; [7]", "value": ">512", "unit": "µg/mL"}, {"measurement": "Antibiotic MIC", "setting": "[3]; [8]", "value": 128, "unit": "µg/mL"}, {"measurement": "Antibiotic MIC", "setting": "[3]; +½ MIC (3.12 μM) C14(9-ene)KKNC12KNH2", "value": "32 to 64", "unit": "µg/mL"}, {"measurement": "Antibiotic MIC", "setting": "[3]; [9]", "value": ">512", "unit": "µg/mL"}, {"measurement": "Antibiotic MIC", "setting": "[3]; no polymer (None), Table 9", "value": ">512", "unit": "µg/mL"}, {"measurement": "Antibiotic MIC", "setting": "[3]; no polymer (None), Table 10", "value": ">512", "unit": "µg/mL"}, {"measurement": "Antibiotic MIC", "setting": "[3]; no polymer (None), Table 12", "value": ">512", "unit": "µg/mL"}, {"measurement": "MIC, ¼ + MIC OAK", "setting": "[3]; E. coli U16327, with C12K(KNC10K)3NH2 (SEQ ID NO: 10) at ¼ of its MIC", "value": "128 to 256", "unit": "µg/mL"}, {"measurement": "MIC, ½ + MIC OAK", "setting": "[3]; E. coli U16327, with C12K(KNC10K)3NH2 (SEQ ID NO: 10) at ½ of its MIC", "value": 128, "unit": "µg/mL"}, {"measurement": "MIC, ⅓ + MIC OAK", "setting": "[3]; E. coli U16327, with C12K(KNC10K)3NH2 (SEQ ID NO: 10) at ⅓ of its MIC", "value": 128, "unit": "µg/mL"}, {"measurement": "Antibiotic MIC, None", "setting": "[3]; E. coli U-16327, antibiotic alone (Table 15)", "value": "128 to 256", "unit": "µg/mL"}, {"measurement": "Antibiotic MIC in presence of C12K(NC8K)7NH2 (SEQ ID NO: 4), +¼ MIC", "setting": "[3]; E. coli U-16327, polymer at ¼ of its MIC", "value": "64 to 128", "unit": "µg/mL"}, {"measurement": "Antibiotic MIC in presence of C12K(NC8K)7NH2 (SEQ ID NO: 4), +½ MIC", "setting": "[3]; E. coli U-16327, polymer at ½ of its MIC", "value": 16, "unit": "µg/mL"}, {"measurement": "Antibiotic MIC in presence of C12K(NC8K)7NH2 (SEQ ID NO: 4), +⅓ MIC", "setting": "[3]; E. coli U-16327, polymer at ⅓ of its MIC", "value": "32 to 64", "unit": "µg/mL"}, {"measurement": "MIC", "setting": "[3]; Escherichia coli, 16327, read-out: MIC, Alone", "value": 256, "unit": "µg/mL"}, {"measurement": "Antibiotic MIC", "setting": "[4]", "value": "<0.03", "unit": "µg/mL"}, {"measurement": "Antibiotic MIC", "setting": "[5]", "value": 32, "unit": "µg/mL"}, {"measurement": "Antibiotic MIC", "setting": "[6]; [7]", "value": 32, "unit": "µg/mL"}, {"measurement": "Antibiotic MIC", "setting": "[6]; [8]", "value": 8, "unit": "µg/mL"}, {"measurement": "Antibiotic MIC", "setting": "[6]; [9]", "value": 16, "unit": "µg/mL"}]}]}
